The subject of experiment [1] is Human coronary artery endothelial (HCAE) cells. In words: Invasion of HCAE cells through Matrigel toward bFGF. Conditions: bFGF 10 ng/ml, 22 h. The experiment is classed as cell-based. The protocol: (§1) The design of experiments to measure invasion and migration of endothelial cells toward the angiogenic factor bFGF (basic fibroblast growth factor) is shown in FIGS. 5A and 6A, respectively. The standard assay used 5×10^4 cells added to the top of the insert in 250 μl of medium. The lower portion of the apparatus contained 750 μl of medium, plus or minus bFGF. […] Transmembrane cell invasion and migration assays were performed using BD FluoroBlok (BD Bioscience, Bedford, Mass.) inserts coated with BD Matrigel Matrix (a biologically active basement membrane preparation) or with fibronectin, respectively. […] (R&D System, Minneapolis, Minn.) (FGF) or medium alone (CTR) were added to the lower chamber of the insert plate as a chemoattractant. The cells were allowed to invade or migrate for 22 hours. Cells were labeled post invasion or post migration with Calcein AM (4 μg/ml) and the fluorescence of the cells that invaded through the BD Matrigel Matrix or migrated to the underside of the insert membrane was measured using a plate reader at 485 nm (excitation) and 530 nm (emission).

For experiment [2] the test system is unchanged. Kind of experiment: Migration of HCAE cells through fibronectin-coated insert toward bFGF. Format: cell-based. Conditions: bFGF 10 ng/ml, 22 h. The protocol:
as §1

The test system of another experiment is AC-23. Kind of experiment: Binding of biotin-conjugated thrombin to complementary peptide AC-23.
Chain of AC-23 (as listed by the source): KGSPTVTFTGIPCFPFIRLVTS
In another experiment the test system is 23C53. Kind of experiment: Binding of biotin-conjugated thrombin to complementary peptide 23C53.
Chain of 23C53 (as listed by the source): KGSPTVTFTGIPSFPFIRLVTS
In experiment [3] the test system is Human coronary artery endothelial (HCAE) cells. In words: Invasion of HCAE cells through Matrigel toward PDGF. The experiment is classed as cell-based. Conditions: PDGF 10 ng/ml, 22 h. The protocol:
(§2) The design of experiments to measure invasion and migration of endothelial cells toward the angiogenic factor PDGF (platelet-derived growth factor-BB) is shown in FIGS. 7A and 8A respectively. The standard assay used 5×10^4 cells added to the top of the insert in […] of medium. The lower portion of the apparatus contained 750 μl of medium, plus or minus PDGF. […] Transmembrane cell invasion and migration assays were performed using BD FluoroBlok inserts coated with BD Matrigel Matrix (a biologically active basement membrane preparation) or with fibronectin (BD Bioscience, Bedford, Mass.), respectively. […] PDGF [10 ng/ml] (R&D System, Minneapolis, Minn. (PDGF) or medium alone (CTR) were added to the lower chamber of the insert plate as a chemoattractant. The cells were allowed to invade or migrate for 22 hours. Cells were labeled post invasion or post migration with Calcein AM (4 μg/ml) and the fluorescence of the cells that invaded through the BD Matrigel Matrix or migrated to the underside of the insert membrane was measured using a plate reader at 485 nm (excitation) and 530 nm (emission).

The test system is the same in experiment [4]. Kind of experiment: Migration of HCAE cells through fibronectin-coated insert toward PDGF. Conditions: PDGF 10 ng/ml, 22 h. The experiment is classed as cell-based. The protocol:
as §2

The results in this text go back to US20100303793A1, “COMBINATION THERAPY FOR CARDIAC REVASCULARIZATION AND CARDIAC REPAIR” (The Board of Regents, The University of Texas Syst, priority 2007, published 2010).

Turning to “bFGF: basic fibroblast growth factor, angiogenic factor (R&D System)”, in experiment [1], the “bFGF-induced endothelial cell invasion, % of invasion with control medium (CTR)” value was ~170%. Besides, in experiment [2], the “Increase of endothelial cell migration by bFGF compared to control medium not containing bFGF” value is recorded as ~40%.

Turning to thrombin, the “Specific binding of biotin-conjugated thrombin to AC23” value in the experiment on AC-23 is “bind specifically”. For the same molecule, the “Specific binding of biotin-conjugated thrombin to 23C53” value in the experiment on 23C53 is on record as “bind specifically”.

B1: PDGF: platelet-derived growth factor-BB, angiogenic factor (R&D System) (protein, UniProt P01127 82-190, looked up)
Platelet-derived growth …: SLGSLTIAEPAMIAECKTRTEVFEISRRLIDRTNANFLVWPPCVEVQRCSGCCNNRNVQCRPTQVQLRPVQVRKIEIVRKKPIFKKATVTLEDHLACKCETVAAARPVT
On to B1, for which the “Effect of PDGF on endothelial cell invasion compared to control medium without PDGF” value in experiment [3] is “no effect”. Further, in experiment [4], the “Effect of PDGF on endothelial cell migration compared to control (CTR)” value is “no effect”.
